Measurements published in PubChem BioAssay (NCI).
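Protocol summary: plate cells (96-well), add compound at 5 concentrations, incubate 48 h, interpolate endpoints linearly. At the GI50, growth is halved. TGI is the concentration that stops growth completely.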

Experiments:
Experiment in all cases: NCI tumour cell line growth inhibition, 48 h
[1] = tested on: HCT-116 colon
[2] = tested on: TK-10 renal
[3] = tested on: HOP-62 NSCLC
[4] = tested on: K-562 leukemia
[5] = tested on: UACC-257 melanoma
[6] = tested on: MDA-MB-435
[7] = tested on: HCC-2998 colon
[8] = tested on: MALME-3M melanoma
[9] = tested on: SK-MEL-5 melanoma
[10] = tested on: MDA-N
[11] = tested on: MDA-MB-231 breast
[12] = tested on: OVCAR-8 ovarian
[13] = tested on: NCI/ADR-RES ovarian
[14] = tested on: RXF 393 renal
[15] = tested on: RPMI-8226 leukemia
[16] = tested on: IGROV1 ovarian
[17] = tested on: SF-268 CNS
[18] = tested on: HCT-15 colon
[19] = tested on: HL-60(TB) leukemia
[20] = tested on: U251 CNS
[21] = tested on: OVCAR-5 ovarian
[22] = tested on: A498 renal
[23] = tested on: ACHN renal
[24] = tested on: KM12 colon
[25] = tested on: DU-145 prostate
[26] = tested on: MOLT-4 leukemia
[27] = tested on: SK-OV-3 ovarian
[28] = tested on: SNB-19 CNS
[29] = tested on: SK-MEL-28 melanoma
[30] = tested on: SN12C renal
[31] = tested on: SW-620 colon
[32] = tested on: COLO 205 colon
[33] = tested on: SF-295 CNS
[34] = tested on: EKVX NSCLC
[35] = tested on: 786-0 renal
[36] = tested on: A549 NSCLC
[37] = tested on: HT29 colon
[38] = tested on: MCF7 breast
[39] = tested on: UACC-62 melanoma
[40] = tested on: CCRF-CEM leukemia
[41] = tested on: CAKI-1 renal
[42] = tested on: UO-31 renal
[43] = tested on: OVCAR-3 ovarian
[44] = tested on: NCI-H460 lung
[45] = tested on: OVCAR-4 ovarian
[46] = tested on: NCI-H226 lung
[47] = tested on: SNB-75 CNS
[48] = tested on: NCI-H23 lung
[49] = tested on: HS 578T breast
[50] = tested on: LOX IMVI melanoma
[51] = tested on: SR leukemia
[52] = tested on: M14 melanoma
[53] = tested on: PC-3 prostate
[54] = tested on: SF-539 CNS
[55] = tested on: BT-549 breast
[56] = tested on: SK-MEL-2 melanoma
[57] = tested on: HOP-92 NSCLC
[58] = tested on: NCI-H522 lung
[59] = tested on: T-47D breast

`O=[N+]([O-])c1ccc(/C=C/c2cc(-c3ccccc3)nc3ccc4ccccc4c23)cc1` showed a TGI [1] greater than 100000 nM, a TGI [2] greater than 100000 nM and a TGI [3] greater than 100000 nM. The TGI [4] was greater than 100000 nM, the TGI [5] was greater than 100000 nM and the TGI [6] was greater than 100000 nM. The TGI [7] was greater than 100000 nM, the TGI [8] was greater than 100000 nM and the TGI [9] was greater than 100000 nM. The TGI [10] was greater than 100000 nM, the TGI [11] was greater than 100000 nM and the TGI [12] was greater than 100000 nM. The TGI [13] was greater than 100000 nM, the TGI [14] was greater than 100000 nM and the TGI [15] was greater than 100000 nM. For the same compound, the TGI [16] was greater than 100000 nM, the TGI [17] was greater than 100000 nM and the TGI [18] was greater than 100000 nM. For the same compound, the TGI [19] was greater than 100000 nM, the TGI [20] was greater than 100000 nM and the TGI [21] was greater than 100000 nM. It also gave a TGI [22] greater than 100000 nM, a TGI [23] greater than 100000 nM and a TGI [24] greater than 100000 nM. For the same compound, the TGI [25] was greater than 100000 nM, the TGI [26] was greater than 100000 nM and the TGI [27] was greater than 100000 nM. For the same compound, the TGI [28] was greater than 100000 nM, the TGI [29] was greater than 100000 nM and the TGI [30] was greater than 100000 nM. For the same compound, the TGI [31] was greater than 100000 nM, the TGI [32] was greater than 100000 nM and the TGI [33] was greater than 100000 nM. It also gave a TGI [34] greater than 100000 nM, a TGI [35] greater than 100000 nM and a TGI [36] greater than 100000 nM. It also gave a TGI [37] greater than 100000 nM, a TGI [38] greater than 100000 nM and a TGI [39] greater than 100000 nM. The TGI [40] was greater than 100000 nM, the TGI [41] was greater than 100000 nM and the TGI [42] was greater than 100000 nM. The TGI [43] was greater than 100000 nM, the TGI [44] was greater than 100000 nM and the TGI [45] was greater than 100000 nM. The TGI [46] was greater than 100000 nM, the TGI [47] was greater than 100000 nM and the TGI [48] was greater than 100000 nM. The TGI [49] was greater than 100000 nM, the TGI [50] was greater than 100000 nM and the TGI [51] was greater than 100000 nM. For the same compound, the TGI [52] was greater than 100000 nM, the TGI [53] was greater than 100000 nM and the TGI [54] was greater than 100000 nM.
Compound `O=C(NCc1ccc(Cn2c(=O)sn(-c3ccccc3)c2=O)cc1)OCc1ccc2cccc(O)c2n1` has a GI50 [1] of 259 nM, a TGI [1] of 1140 nM and a GI50 [2] of 571 nM. It also gave a TGI [2] of 1620 nM, a GI50 [3] of 1550 nM and a TGI [3] of 3520 nM. It also gave a GI50 [4] of 403 nM, a TGI [4] greater than 100000 nM and a GI50 [5] of 1370 nM. The TGI [5] was 3010 nM, the GI50 [6] was 709 nM and the TGI [6] was 2030 nM. It also gave a GI50 [7] of 1810 nM, a TGI [7] of 3510 nM and a GI50 [8] of 1480 nM. The TGI [8] was 2860 nM, the GI50 [55] was 732 nM and the TGI [55] was 2300 nM. For the same compound, the GI50 [9] was 1600 nM, the TGI [9] was 2970 nM and the GI50 [11] was 1190 nM. For the same compound, the TGI [11] was 2550 nM, the GI50 [12] was 957 nM and the TGI [12] was 3000 nM. The GI50 [13] was 1700 nM, the TGI [13] was 8870 nM and the GI50 [14] was 457 nM. It also gave a TGI [14] of 1710 nM, a GI50 [15] of 370 nM and a TGI [15] of 4970 nM. The GI50 [16] was 596 nM, the TGI [16] was 1960 nM and the GI50 [17] was 1550 nM. For the same compound, the TGI [17] was 3040 nM, the GI50 [18] was 298 nM and the TGI [18] was 969 nM. The GI50 [19] was 1240 nM, the TGI [19] was greater than 20500 nM and the GI50 [20] was 1470 nM. It also gave a TGI [20] of 2920 nM, a GI50 [21] of 1540 nM and a TGI [21] of 3120 nM. For the same compound, the GI50 [22] was 382 nM, the TGI [22] was 1890 nM and the GI50 [23] was 393 nM. For the same compound, the TGI [23] was 1470 nM, the GI50 [24] was 1540 nM and the TGI [24] was 3020 nM. It also gave a GI50 [56] of 1460 nM, a TGI [56] of 3000 nM and a GI50 [25] of 1080 nM. It also gave a TGI [25] of 2290 nM, a GI50 [26] of 785 nM and a TGI [26] greater than 24300 nM. It also gave a GI50 [27] of 5960 nM, a TGI [27] of 18700 nM and a GI50 [57] of 459 nM. It also gave a TGI [57] of 1970 nM, a GI50 [58] of 407 nM and a TGI [58] of 1690 nM. It also gave a GI50 [28] of 1490 nM, a TGI [28] of 2840 nM and a GI50 [29] of 1340 nM. For the same compound, the TGI [29] was 2640 nM, the GI50 [30] was 907 nM and the TGI [30] was 2240 nM. For the same compound, the GI50 [31] was 301 nM, the TGI [31] was 951 nM and the GI50 [32] was 608 nM. It also gave a TGI [32] of 2290 nM, a GI50 [33] of 2140 nM and a TGI [33] of 5820 nM. For the same compound, the GI50 [34] was 1500 nM, the TGI [34] was 3050 nM and the GI50 [35] was 484 nM. It also gave a TGI [35] of 1080 nM, a GI50 [36] of 1510 nM and a TGI [36] of 3870 nM. The GI50 [59] was 1490 nM, the TGI [59] was 4590 nM and the GI50 [37] was 556 nM. It also gave a TGI [37] of 2080 nM, a GI50 [38] of 331 nM and a TGI [38] of 2120 nM. It also gave a GI50 [39] of 1170 nM, a TGI [39] of 2440 nM and a GI50 [40] of 359 nM. It also gave a TGI [40] greater than 100000 nM, a GI50 [41] of 479 nM and a TGI [41] of 1840 nM. For the same compound, the GI50 [42] was 571 nM, the TGI [42] was 1920 nM and the GI50 [43] was 363 nM. For the same compound, the TGI [43] was 1360 nM, the GI50 [44] was 1410 nM and the TGI [44] was 3130 nM. The GI50 [45] was 947 nM, the TGI [45] was 2280 nM and the GI50 [46] was 1270 nM. The TGI [46] was 2770 nM, the GI50 [47] was 783 nM and the TGI [47] was 2080 nM. It also gave a GI50 [48] of 1460 nM, a TGI [48] of 3060 nM and a GI50 [49] of 1710 nM. It also gave a TGI [49] of 4900 nM, a GI50 [50] of 273 nM and a TGI [50] of 955 nM. It also gave a GI50 [51] of 383 nM, a TGI [51] greater than 100000 nM and a GI50 [52] of 647 nM. For the same compound, the TGI [52] was 2030 nM, the GI50 [53] was 826 nM and the TGI [53] was 2420 nM. It also gave a GI50 [54] of 1050 nM and a TGI [54] of 2300 nM.
